Results reported in patent US5424442A, “Water-soluble methine compounds useful in photographic silver halide emulsion containing the same” (Fuji Photo Film Co., Ltd., priority 1990, dated 1995).
Values joined by “and” are separate entries in the source; they are usually repeats but may differ in a detail not shown here. Equal values may be shown once. Read-outs that look alike come from different tables or passages of the source. Values belong to the molecule of their own block, whether it stands above or below them.

Key:
[1] = Solubility in solvents (dissolution in incubator, filtration through microfilter, visible absorption); assay type: physicochemical; conditions: for Solubility in Water / Solubility in MeOH / Solubility in H2O: 720 min
Description: The solubility of some of the compounds within formula (I) was accurately measured.
The measurement of solubility was made in the following manner.

[2] = Spectral sensitization of photographic silver halide emulsion; design: Yellow filter sensitivity (SY) / Red filter sensitivity (SR): scale not given here; conditions: for Spectral sensitization performance (in words): added to emulsion as aqueous solution or aqueous dispersion; for Maximum Sensitization: spectrogram, tungsten light source of 2666° K.; for Yellow filter sensitivity (SY): yellow filter SC-50, 5 seconds exposure; for Yellow filter sensitivity (SY) / Red filter sensitivity (SR): standard point Fog+0.2; for Red filter sensitivity (SR): red filter SC-60, 5 seconds exposure
Description: A silver halide emulsion comprising pure silver bromide and having a cubic crystal form (the area ratio of the plane to the entire surface area of grain being 92%) was prepared and subjected to a sulfur sensitization treatment. The average diameter of silver halide grains contained in the emulsion was 0.68 μm, and 0.74 mol of silver halide per kg of emulsion was contained in the emulsion. One kg of the emulsion was weighed in each of pots. An aqueous solution of each of the compounds of formula (I) indicated in Tables 4 and 5 was added to the pot, and the mixture was mixed with stirring at 40° C. For the purpose of comparison, comparative compounds 1 and 2 wherein counter ion was iodide were dispersed in water and added to respective pots.
Further, 4-hydroxy-6-methyl-1,3,3a,7-tetraazaindene in an amount of 0.1 g/kg of emulsion, sodium salt of 2,4-dichloro-6-hydroxy-1,3,5-triazine in an amount of 0.1 g/kg of emulsion and sodium dodecylbenzenesulfonate in an amount of 0.1 g/kg of emulsion in order were added thereto. The emulsion was then coated on a polyethylene terephthalate film to obtain a photographic material.
Each of these samples was exposed through an optical wedge for 5 seconds by using a yellow filter (SC-50, a product of Fuji Photo Film Co., Ltd.) or a red filter (SC-60, a product of Fuji Photo Film Co., Ltd.) and tungsten light (5400° K.).
A spectrogram was obtained by using a grating spectrograph having a tungsten light source of 2666° K., and the maximum sensitization was measured.
After exposure, the samples were developed at 20° C for 4 minutes by using the following developing solution. The density of each of the developed films was measured by using a densitometer (manufactured by Fuji Photo Film Co., Ltd. Spectral sensitivity, that is, yellow filter sensitivity (SY) or red filter sensitivity (SR), sensitivity (SB) in the sensitive region inherent in silver halide, and fog were determined. Sensitivity was determined when the standard point of optical density was referred to as (Fog+0.2). Composition of Developing Solution […]
Two volumes of water were added thereto to obtain a working solution when used.

[3] = water, Table 3, read-out: Solubility in Water
[4] = MeOH, 37° C., 12 hours, Table 2
[5] = water, H2O, 37° C., 12 hours, Table 2, read-out: Solubility in H2O
[6] = MeOH, 37° C., 12 hours, Table 1

SMILES: CCCn1c(=Cc2sc3ccccc3[n+]2CC)sc(=CC=C2C=Cc3ccccc3N2CC)c1=O [Compound 96]
Red filter sensitivity (SR) ([2]; Table 5): 3600
Maximum Sensitization ([2]; Table 5): 660 nm

SMILES: CC[n+]1c(C=c2sc(=CC=C3C=CN(C)C=C3)c(=O)n2C)sc2ccccc21 [Compound 98]
solubility at 12 h [1, 3]: 6800 µg/mL

SMILES: CCN1C(=CC=c2sc(=Cc3sc(-c4ccccc4)c(-c4ccccc4)[n+]3CC)n(CC)c2=O)Sc2ccc3ccccc3c21 [Compound 89]
Maximum Sensitization ([2]; Table 4): 640 nm
Yellow filter sensitivity (SY) ([2]; Table 4): 705

SMILES: CCn1c(=Cc2sc3c4ccccc4ccc3[n+]2CC)sc(=CC=C2SCCN2C)c1=O [Compound 45]
solubility at 12 h [1, 3]: > 10000 µg/mL

SMILES: CN1C(=CC=c2sc(=Cc3sc4ccccc4[n+]3C)n(C)c2=O)Sc2ccccc21 [Compound 10]
Solubility in Water ([1]; water, Table 3): > 10000 µg/mL

SMILES: CCn1c(=Cc2oc3ccccc3[n+]2CC)sc(=C2Sc3ccccc3N2C)c1=O [Compound 128]
Solubility in H2O ([1]; H2O, 37° C., 12 hours, Table 2): > 10000 µg/mL
Solubility in MeOH [1, 4]: > 10000 µg/mL

SMILES: CCN1C(=CC=c2sc(=Cc3sc(-c4ccccc4)c(-c4ccccc4)[n+]3CC)n(CC)c2=O)Oc2ccccc21 [Compound 88]
Maximum Sensitization ([2]; Table 4): 565 nm
Yellow filter sensitivity (SY) ([2]; Table 4): 2085

SMILES: CCn1c(=Cc2sc3ccccc3[n+]2C)sc(=C2Oc3ccc4ccccc4c3N2C)c1=O [Compound 127]
solubility at 12 h [1, 3]: 5700 µg/mL

SMILES: CCn1c(=CC2=CC(=Cc3sc4cc(C)c(C)cc4[n+]3CC)CC(C)(C)C2)sc(=C2Sc3ccccc3N2C)c1=O [Compound 151]
Red filter sensitivity (SR) ([2]; Table 5): 1535
Maximum Sensitization ([2]; Table 5): 750 nm

SMILES: CN1C(=c2sc(=Cc3cc[n+](C)cc3)n(C)c2=O)Sc2ccccc21 [Compound 145]
solubility at 12 h [1, 3]: 8800 µg/mL

SMILES: CCn1c(=C2CCC[n+]3c2sc2ccccc23)sc(=C2Sc3ccccc3N2C)c1=O [Compound 156]
solubility at 12 h [1, 3]: 3700 µg/mL

SMILES: CCn1c(=Cc2oc3ccccc3[n+]2CC)sc(=C2Sc3ccccc3N2C)c1=O [Compound D, reference compound]
Solubility in H2O ([1]; H2O, 37° C., 12 hours, Table 2): 200 µg/mL
Solubility in MeOH [1, 4]: 2000 µg/mL

SMILES: CCn1c(=Cc2sc3ccccc3[n+]2CC)sc(=C2C=Cc3ccccc3N2C)c1=O [Compound 147]
solubility at 12 h [1, 3]: 8100 µg/mL

SMILES: CCN1C(=CC=c2sc(=Cc3cc[n+](C)c4ccccc34)n(C)c2=O)N(CC)c2ccccc21 [Compound 104]
solubility at 12 h [1, 3]: 4100 µg/mL

SMILES: CCn1c(=Cc2sc3cc(C)c(C)cc3[n+]2CC)sc(=C2Sc3ccc(OC)cc3N2C)c1=O [Compound 111]
Maximum Sensitization ([2]; Table 4): 540 nm
Yellow filter sensitivity (SY) ([2]; Table 4): 2085

SMILES: CN1C(=CC=c2sc(=Cc3sc4ccccc4[n+]3C)n(C)c2=O)Sc2ccccc21 [Compound 7]
Solubility in Water ([1]; water, Table 3): 6200 µg/mL

SMILES: CCn1c(=Cc2oc3c4ccccc4ccc3[n+]2CC)sc(=C2Sc3ccccc3N2C)c1=O [drawing 128, reference compound]
Solubility in MeOH [1, 4]: 150 µg/mL

SMILES: C=CCN1C=CC(=CC=c2sc(=Cc3sc4c5ccccc5ccc4[n+]3CC)n(CC=C)c2=O)c2ccccc21 [Compound 100]
Red filter sensitivity (SR) ([2]; Table 5): 1685
Maximum Sensitization ([2]; Table 5): 715 nm

SMILES: CN1C(=CC=c2sc(=Cc3sc4ccccc4[n+]3C)n(C)c2=O)Sc2ccccc21 [Compound 9]
Solubility in Water ([1]; water, Table 3): 3800 µg/mL

SMILES: CCn1c(=Cc2sc(-c3ccccc3)c(-c3ccccc3)[n+]2CC)sc(=CC=C2N(C)c3ccccc3C2(C)C)c1=O [Compound 91]
Maximum Sensitization ([2]; Table 4): 600 nm
Yellow filter sensitivity (SY) ([2]; Table 4): 1730

SMILES: CCN1C(=CC=c2sc(=Cc3oc4c5ccccc5ccc4[n+]3CC)n(CC)c2=O)Sc2c1ccc1ccccc21 [Compound 86]
Maximum Sensitization ([2]; Table 4): 630 nm
Yellow filter sensitivity (SY) ([2]; Table 4): 890

SMILES: CCCn1c(=Cc2oc3cc(C)c(C)cc3[n+]2CC)sc(=CC=C2C=CN(CC)c3ccccc32)c1=O [Compound 101]
Red filter sensitivity (SR) ([2]; Table 5): 2270
Maximum Sensitization ([2]; Table 5): 695 nm

SMILES: CCn1c(=Cc2oc3ccc(-c4ccccc4)cc3[n+]2CC)sc(=C2Sc3ccccc3N2C)c1=O [Compound 133]
Maximum Sensitization ([2]; Table 4): 520 nm
Yellow filter sensitivity (SY) ([2]; Table 4): 1620

SMILES: CCn1c(=CC2=[N+](CC)CCS2)sc(=C2Sc3ccccc3N2C)c1=O [Compound 142]
Maximum Sensitization ([2]; Table 4): 495 nm
Yellow filter sensitivity (SY) ([2]; Table 4): 300

Second part, led by results:

Water solubility (in words) ([1]; water): low solubility in water
SMILES: CCN1C(=CC=c2sc(=Cc3sc(-c4ccccc4)c(-c4ccccc4)[n+]3CC)n(CC)c2=O)Sc2ccccc21 [Comparative Compound 1, reference compound]
Spectral sensitization performance (in words) [2]: the desired spectral sensitivity cannot be obtained
Maximum Sensitization ([2]; Table 4): 638 nm
Yellow filter sensitivity (SY) ([2]; Table 4): 100

Solubility in MeOH [1, 4]: 100 µg/mL
SMILES: CCn1c(=Cc2sc3cc(C)c(C)cc3[n+]2CC)sc(=C2Sc3ccccc3N2C)c1=O [drawing 127, reference compound]

solubility at 12 h [1, 3]: 1400 µg/mL
SMILES: CCN1C(=CC=c2sc(=CC3=CC(=Cc4sc5cc(C)c(C)cc5[n+]4CC)Oc4ccccc43)n(CC)c2=O)Sc2ccccc21 [Compound 153]

Solubility in Water ([1]; water, Table 3): 5300 µg/mL
SMILES: CCN1C(=CC=c2sc(=Cc3sc4c5ccccc5ccc4[n+]3C)n(CC)c2=O)Sc2ccc3ccccc3c21 [Compound 33]

solubility at 12 h ([1]; methanol, organic solvent or mixture, MeOH, 37° C., 12 hours, Table 2, read-out: Solubility in MeOH): 2800 µg/mL
solubility at 12 h [1, 5]: 300 µg/mL
SMILES: CCN1C(=CC=c2sc(=Cc3cc[n+](CC)c4ccccc34)n(CC)c2=O)C=Cc2ccccc21 [reference compound]

Solubility in Water ([1]; water, Table 3): 4800 µg/mL
SMILES: CCN1C(=CC=c2sc(=Cc3sc4c5ccccc5ccc4[n+]3C)n(CC)c2=O)Sc2ccc3ccccc3c21 [Compound 36]

Solubility in MeOH [1, 4]: > 10000 µg/mL
solubility at 12 h [1, 5]: 1700 µg/mL
SMILES: CCn1c(=Cc2sc3cc(C)c(C)cc3[n+]2CC)sc(=C2Sc3ccccc3N2C)c1=O [Compound 110]

solubility at 12 h [1, 3]: 7200 µg/mL
SMILES: CCN1C(=CC=c2sc(=Cc3sc4ccccc4[n+]3CC)n(CC)c2=O)Sc2ccc(Cl)cc21 [Compound 3]

solubility at 12 h [1, 3]: 2100 µg/mL
SMILES: CCn1c(=CC2=CC(=Cc3sc4ccccc4[n+]3CC)Oc3ccccc32)sc(=C2Sc3ccc(OC)cc3N2C)c1=O [Compound 150]
Red filter sensitivity (SR) ([2]; Table 5): 905
Maximum Sensitization ([2]; Table 5): 695 nm

Solubility in H2O ([1]; H2O, 37° C., 12 hours): 0.17 mM
Solubility in H2O ([1]; H2O, 37° C., 12 hours, Table 1): 100 µg/mL
Solubility in MeOH ([1]; MeOH, 37° C., 12 hours): 1.11 mM
Solubility in MeOH [1, 6]: 650 µg/mL
solubility at 12 h ([1]; dmso, organic solvent or mixture, DMSO, 37° C., 12 hours, read-out: Solubility in DMSO): 20000 µM and 11700 µg/mL
SMILES: CCN1C(C)=CSC1=CC=c1sc(=Cc2sc3ccccc3[n+]2CC)n(CC)c1=O [Compound A, reference compound]

Solubility in MeOH ([1]; MeOH, 37° C., 12 hours): 0.03 mM
Solubility in MeOH [1, 6]: 30 µg/mL
SMILES: CCN1C(=CC=c2sc(=Cc3sc4c5ccccc5ccc4[n+]3CC)n(CC)c2=O)Sc2ccc3ccccc3c21 [Compound E, reference compound]

Solubility in MeOH ([1]; MeOH, 37° C., 12 hours): > 25 mM
Solubility in MeOH [1, 6]: > 16000 µg/mL
solubility at 12 h ([1]; water, H2O, 37° C., 12 hours, Table 1, read-out: Solubility in H2O): 6560 µg/mL
solubility at 12 h ([1]; water, H2O, 37° C., 12 hours, read-out: Solubility in H2O): 10.1 mM
SMILES: CCN1C(=CC=c2sc(=Cc3sc4c5ccccc5ccc4[n+]3CC)n(CC)c2=O)Sc2ccc3ccccc3c21 [Compound 25]

solubility at 12 h [1, 3]: 3200 µg/mL
SMILES: CCn1c(=CC2=CC(=Cc3sc4ccccc4[n+]3CC)CC(C)(C)C2)sc(=C2Sc3ccccc3N2C)c1=O [Compound 148]

Water solubility (in words) ([1]; water): low solubility in water
SMILES: CCn1c(=CC2=CC(=Cc3sc4cc(C)c(C)cc4[n+]3CC)CC(C)(C)C2)sc(=C2Sc3ccccc3N2C)c1=O [Comparative Compound 2, reference compound]
Spectral sensitization performance (in words) [2]: the desired spectral sensitivity cannot be obtained
Red filter sensitivity (SR) ([2]; Table 5): 100
Maximum Sensitization ([2]; Table 5): 747 nm

Solubility in Water ([1]; water, Table 3): 7100 µg/mL
SMILES: CCN1C(=CC=c2sc(=Cc3sc4c5ccccc5ccc4[n+]3C)n(CC)c2=O)Sc2ccc3ccccc3c21 [Compound 34]

Solubility in Water ([1]; water, Table 3): > 10000 µg/mL
SMILES: CCN1C(=CC=c2sc(=Cc3sc4c5ccccc5ccc4[n+]3C)n(CC)c2=O)Sc2ccc3ccccc3c21 [Compound 35]

Solubility in H2O ([1]; H2O, 37° C., 12 hours): > 37 mM
Solubility in H2O ([1]; H2O, 37° C., 12 hours, Table 1): > 19000 µg/mL
Solubility in MeOH ([1]; MeOH, 37° C., 12 hours): > 33 mM
Solubility in MeOH [1, 6]: > 17000 µg/mL
SMILES: CCN1C(C)=CSC1=CC=c1sc(=Cc2sc3ccccc3[n+]2CC)n(CC)c1=O [Compound 53]
